Source: ChEMBL document CHEMBL1139415, “Highly functionalized 7-azaindoles as selective PPAR gamma modulators” (Bioorg Med Chem Lett, 2008)
The source made the active and inactive calls. The rule behind the calls is not given here.

What was measured:
[1] = molecular target: T1, Peroxisome proliferator-activated receptor gamma (Homo sapiens, UniProt P37231); test: Displacement of [3H]2AD-5075 from GST-tagged human PPARgamma receptor expressed in Escherichia coli BL21
T1 sequence (P37231 whole entry): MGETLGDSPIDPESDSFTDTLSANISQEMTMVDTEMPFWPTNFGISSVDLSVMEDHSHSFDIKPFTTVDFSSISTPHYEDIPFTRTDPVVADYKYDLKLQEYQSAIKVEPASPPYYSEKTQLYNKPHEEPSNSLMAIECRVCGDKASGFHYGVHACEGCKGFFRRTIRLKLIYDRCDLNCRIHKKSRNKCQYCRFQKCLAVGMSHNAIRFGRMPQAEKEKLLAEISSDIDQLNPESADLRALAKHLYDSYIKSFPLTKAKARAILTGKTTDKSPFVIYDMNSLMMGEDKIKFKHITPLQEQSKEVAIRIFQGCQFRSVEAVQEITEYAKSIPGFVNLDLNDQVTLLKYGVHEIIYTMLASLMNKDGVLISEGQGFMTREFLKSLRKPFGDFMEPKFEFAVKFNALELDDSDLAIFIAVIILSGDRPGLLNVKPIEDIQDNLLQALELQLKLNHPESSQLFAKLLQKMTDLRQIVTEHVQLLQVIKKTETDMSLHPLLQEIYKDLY

[2] = molecular target: T1, Peroxisome proliferator-activated receptor gamma; test: Agonist activity at human PPARgamma receptor expressed in african green monkey COS cells after 48 hrs by GAL4 transactivation assay; assay type: functional, cell-based
[3] = molecular target: T2, Peroxisome proliferator-activated receptor alpha (Homo sapiens, UniProt Q07869); test: (§1) Binding affinity to human PPARalpha
T2 sequence (Q07869 whole entry): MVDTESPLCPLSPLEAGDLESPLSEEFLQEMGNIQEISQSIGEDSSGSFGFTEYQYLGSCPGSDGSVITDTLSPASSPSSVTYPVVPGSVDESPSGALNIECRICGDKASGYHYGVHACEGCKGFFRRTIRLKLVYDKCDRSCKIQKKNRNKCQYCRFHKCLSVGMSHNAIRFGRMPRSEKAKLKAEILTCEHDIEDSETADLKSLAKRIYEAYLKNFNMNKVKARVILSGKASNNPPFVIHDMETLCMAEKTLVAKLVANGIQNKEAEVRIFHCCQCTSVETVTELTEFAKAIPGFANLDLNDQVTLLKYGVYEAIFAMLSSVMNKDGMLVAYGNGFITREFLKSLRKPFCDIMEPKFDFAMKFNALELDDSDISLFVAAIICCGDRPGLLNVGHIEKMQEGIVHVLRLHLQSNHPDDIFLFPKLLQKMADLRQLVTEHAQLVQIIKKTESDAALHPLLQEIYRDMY

[4] = molecular target: T3, Peroxisome proliferator-activated receptor delta (Homo sapiens, UniProt Q03181); test: Binding affinity to PPARdelta
T3 sequence (Q03181 whole entry): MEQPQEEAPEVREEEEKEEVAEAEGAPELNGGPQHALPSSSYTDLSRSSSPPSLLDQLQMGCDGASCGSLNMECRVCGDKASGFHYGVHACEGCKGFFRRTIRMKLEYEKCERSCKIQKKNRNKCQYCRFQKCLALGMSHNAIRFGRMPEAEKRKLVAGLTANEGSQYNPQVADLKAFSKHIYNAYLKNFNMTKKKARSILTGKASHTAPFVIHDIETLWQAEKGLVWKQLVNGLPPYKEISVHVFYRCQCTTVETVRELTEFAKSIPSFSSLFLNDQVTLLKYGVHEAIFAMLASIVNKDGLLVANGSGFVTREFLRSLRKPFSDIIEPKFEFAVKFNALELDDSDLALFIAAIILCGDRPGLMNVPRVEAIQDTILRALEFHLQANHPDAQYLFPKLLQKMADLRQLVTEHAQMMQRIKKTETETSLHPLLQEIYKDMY

[5] = Clearance in Sprague-Dawley rat at 0.5 mg, iv and 2.0 mg, po; assay type: ADME, organism-based; details: in vivo
[6] = Half life in Sprague-Dawley rat at 0.5 mg, iv and 2.0 mg, po; assay type: ADME, organism-based; details: in vivo
[7] = Bioavailability in Sprague-Dawley rat at 0.5 mg, iv and 2.0 mg, po; assay type: ADME, organism-based; details: in vivo
Mus musculus [8] = test: Antiglycemic activity in db/db mouse assessed as glucose correction at 30 mg/kg, po administered daily for 11 days; assay type: functional
Cytochrome P450 2C9 = Cytochrome P450 2C9 (Homo sapiens, UniProt P11712); test: Inhibition of CYP2C9; assay type: ADME
[9] = molecular target: T4, Peroxisome proliferator-activated receptor alpha (Mus musculus) (UniProt P23204); test: Binding affinity to mouse PPARalpha
T4 sequence (whole entry): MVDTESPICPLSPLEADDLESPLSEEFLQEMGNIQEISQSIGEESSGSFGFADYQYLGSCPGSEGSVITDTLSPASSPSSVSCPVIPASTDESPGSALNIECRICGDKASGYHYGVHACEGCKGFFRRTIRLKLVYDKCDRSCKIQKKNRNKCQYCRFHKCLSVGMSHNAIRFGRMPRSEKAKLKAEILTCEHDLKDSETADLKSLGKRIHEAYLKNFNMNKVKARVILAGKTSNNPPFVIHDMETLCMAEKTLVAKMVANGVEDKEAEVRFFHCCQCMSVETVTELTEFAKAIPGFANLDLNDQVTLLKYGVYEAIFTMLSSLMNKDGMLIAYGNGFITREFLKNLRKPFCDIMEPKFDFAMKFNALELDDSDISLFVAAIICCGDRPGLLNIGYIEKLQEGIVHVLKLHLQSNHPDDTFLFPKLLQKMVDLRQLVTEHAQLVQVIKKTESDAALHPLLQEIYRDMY

Mus musculus [10] = test: Antiglycemic activity in db/db mouse assessed as glucose correction at 10 mg/kg, po administered daily for 11 days; assay type: functional
[11] = molecular target: Peroxisome proliferator-activated receptor alpha (Homo sapiens) (UniProt Q07869); test: as §1
Mus musculus [12] = test: Antiglycemic activity in db/db mouse assessed as glucose correction at 50 mg/kg, po administered daily for 11 days; assay type: functional
Mus musculus [13] = test: Antiglycemic activity in db/db mouse assessed as glucose correction at 20 mg/kg, po administered daily for 11 days; assay type: functional
[14] = molecular target: Thromboxane A2 receptor (Homo sapiens) (UniProt P21731); test: Inhibition of TXA2 receptor at 10 uM
Sequence of Thromboxane A2 receptor (Homo sapiens) (P21731 whole entry): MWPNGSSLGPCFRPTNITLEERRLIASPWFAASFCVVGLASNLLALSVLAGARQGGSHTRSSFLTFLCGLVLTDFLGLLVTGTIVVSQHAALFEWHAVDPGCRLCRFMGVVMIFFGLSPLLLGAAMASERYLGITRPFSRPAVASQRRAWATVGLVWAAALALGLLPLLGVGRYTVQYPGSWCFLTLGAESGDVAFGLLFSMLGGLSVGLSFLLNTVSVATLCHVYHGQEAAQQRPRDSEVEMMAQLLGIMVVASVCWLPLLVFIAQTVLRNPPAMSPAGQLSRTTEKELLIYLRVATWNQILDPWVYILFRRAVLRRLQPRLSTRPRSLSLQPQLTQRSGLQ

Sequence of Cytochrome P450 2C9 (P11712 whole entry): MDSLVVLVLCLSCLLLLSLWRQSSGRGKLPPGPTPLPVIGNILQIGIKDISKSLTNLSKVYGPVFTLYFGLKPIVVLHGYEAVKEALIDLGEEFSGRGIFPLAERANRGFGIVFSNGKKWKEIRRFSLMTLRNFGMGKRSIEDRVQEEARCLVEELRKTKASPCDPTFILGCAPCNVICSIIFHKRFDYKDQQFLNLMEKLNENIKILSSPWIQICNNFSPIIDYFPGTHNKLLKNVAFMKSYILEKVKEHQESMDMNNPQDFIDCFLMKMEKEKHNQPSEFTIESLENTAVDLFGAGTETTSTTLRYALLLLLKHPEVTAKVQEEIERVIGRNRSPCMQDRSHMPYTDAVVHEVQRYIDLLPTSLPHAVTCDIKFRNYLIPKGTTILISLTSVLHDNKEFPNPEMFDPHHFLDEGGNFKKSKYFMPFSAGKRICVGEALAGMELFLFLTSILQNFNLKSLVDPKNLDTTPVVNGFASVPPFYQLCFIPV

SMILES	IC50 [1]	EC50 [2]	IC50 [3]	IC50 [4]	clearance [5]	half-life [6]	bioavailability [7]	Activity (Mus musculus [8])	IC50 (Cytochrome P450 2C9)	%max [9]	Activity [9]	Activity (Mus musculus [10])	Activity [11]	Activity (Mus musculus [12])	Activity (Mus musculus [13])	inhibition [14]
Cc1c(Oc2ccc(Cl)cc2)c2ccc(F)nc2n1Cc1ccc(F)c(O[C@@H](C)C(=O)O)c1	23 nM	94 nM	> 50 µM	> 50 µM	–	–	–	–	–	–	–	–	–	–	–	–
Cc1c(Oc2ccc(Cl)cc2)c2ccc(F)nc2n1Cc1ccc(Cl)c(O[C@@H](C)C(=O)O)c1	3 nM	4 nM	> 50 µM	> 50 µM	23 mL/min/kg	48 min	47%	30%	–	–	–	–	–	–	–	–
COc1ccc(C(=O)c2c(C)n(Cc3cc(O[C@@H](C)C(=O)O)ccc3Cl)c3nc(OC)ccc23)cc1	2 nM	2 nM	> 50 µM	> 50 µM	–	–	–	32%	–	–	–	–	–	–	–	–
Cc1c(Oc2ccc(Cl)cc2)c2cccnc2n1Cc1cc(O[C@@H](C)C(=O)O)ccc1F	54 nM	156 nM	> 50 µM	> 50 µM	22.1 mL/min/kg	96 min	77%	–	–	–	–	–	–	–	–	–
Cc1c(C(=O)c2ccc(Cl)cc2)c2ccc(OC(F)(F)F)cc2n1Cc1cccc(O[C@@H](C)C(=O)O)c1	1 nM	1 nM	–	–	21.7 mL/min/kg	90 min	45%	–	5.6 µM	–	–	–	–	–	–	–
COc1ccc(C(=O)c2c(C)n(Cc3cc(O[C@@H](C)C(=O)O)ccc3F)c3nc(C)ccc23)cc1	4 nM	2 nM	–	–	32 mL/min/kg	114 min	105%	–	–	28%	500 nM	63%	–	–	–	–
Cc1c(Oc2ccc(Cl)cc2)c2ccc(Cl)nc2n1Cc1ccc(Cl)c(O[C@@H](C)C(=O)O)c1	3 nM	4 nM	> 50 µM	> 50 µM	27 mL/min/kg	72 min	56%	44%	–	–	–	32%	–	–	–	–
COc1ccc(C(=O)c2c(C)n(Cc3ccc(F)c(O[C@@H](C)C(=O)O)c3)c3nc(OC)ccc23)cc1	1 nM	1 nM	–	–	–	–	–	–	–	–	222 nM	23%	489 nM	–	–	–
Cc1c(Oc2ccc(Cl)cc2)c2ccc(F)nc2n1Cc1cc(O[C@@H](C)C(=O)O)ccc1Cl	15 nM	4 nM	> 50 µM	> 50 µM	–	–	–	–	–	–	–	–	–	–	–	–
COc1ccc(C(=O)c2c(C)n(Cc3cccc(O[C@H](C)C(=O)O)c3)c3ncccc23)cc1	726 nM	2930 nM	–	> 50 µM	–	–	–	–	–	–	Active	–	Active	–	–	–
Cc1c(Oc2ccc(Cl)cc2)c2cccnc2n1Cc1cc(O[C@@H](C)C(=O)O)ccc1Cl	25 nM	36 nM	> 50 µM	> 50 µM	21.8 mL/min/kg	72 min	61%	–	–	–	–	–	–	–	–	–
Cc1c(Oc2ccc(Cl)cc2)c2cccnc2n1Cc1ccc(F)c(O[C@@H](C)C(=O)O)c1	106 nM	140 nM	> 50 µM	> 50 µM	–	–	–	–	–	–	–	–	–	–	–	–
COc1ccc(C(=O)c2c(C)n(Cc3ccc(F)c(O[C@@H](C)C(=O)O)c3)c3ncccc23)cc1	10 nM	3 nM	> 50 µM	> 50 µM	–	–	–	–	–	–	–	–	–	–	–	–
COc1ccc(C(=O)c2c(C)n(Cc3ccc(Cl)c(O[C@@H](C)C(=O)O)c3)c3nc(OC)ccc23)cc1	< 1 nM	1 nM	> 50 µM	> 50 µM	–	–	–	–	–	–	–	–	–	–	–	–
COc1ccc(C(=O)c2c(C)n(Cc3cc(O[C@@H](C)C(=O)O)ccc3F)c3nc(OC)ccc23)cc1	2 nM	1 nM	> 50 µM	> 50 µM	7.4 mL/min/kg	84 min	37%	35%	–	–	–	33%	–	34%	–	–
CN(CCOc1ccc(CC2SC(=O)NC2=O)cc1)c1ccccn1 (configuration not stated) [ROSIGLITAZONE]	–	–	–	–	–	–	–	–	–	–	–	90%	–	–	–	–
Cc1c(Oc2ccc(Cl)cc2)c2ccc(C(F)(F)F)nc2n1Cc1ccc(Cl)c(O[C@@H](C)C(=O)O)c1	22 nM	23 nM	> 50 µM	> 50 µM	12.4 mL/min/kg	114 min	61%	–	–	–	–	–	–	56%	18%	–
COc1ccc(C(=O)c2c(C)n(Cc3cccc(O[C@@H](C)C(=O)O)c3)c3nc(C)ccc23)cc1	16 nM	9 nM	> 50 µM	> 50 µM	28 mL/min/kg	144 min	80%	–	–	–	–	42%	–	–	–	–
COc1ccc(C(=O)c2c(C)n(Cc3cc(O[C@@H](C)C(=O)O)ccc3F)c3ncccc23)cc1	5 nM	3 nM	> 50 µM	> 50 µM	31.7 mL/min/kg	108 min	51%	–	–	–	–	–	–	–	44%	64%
